As a reminder, the IC50 is the concentration that inhibits the measured activity by half.

Results on one compound are retold here after BindingDB's records for doi:10.1021/jm401195n (Fudan University, 2013).

The assay has as its target Indoleamine 2,3-dioxygenase 1 (Homo sapiens, UniProt P14902). Briefly: Inhibition of human IDO1 expressed in HEK293 cells assessed as kynurenine release after 5 hrs by spectrophotometry.

Chain of Indoleamine 2,3-dioxygenase 1 (P14902 whole entry): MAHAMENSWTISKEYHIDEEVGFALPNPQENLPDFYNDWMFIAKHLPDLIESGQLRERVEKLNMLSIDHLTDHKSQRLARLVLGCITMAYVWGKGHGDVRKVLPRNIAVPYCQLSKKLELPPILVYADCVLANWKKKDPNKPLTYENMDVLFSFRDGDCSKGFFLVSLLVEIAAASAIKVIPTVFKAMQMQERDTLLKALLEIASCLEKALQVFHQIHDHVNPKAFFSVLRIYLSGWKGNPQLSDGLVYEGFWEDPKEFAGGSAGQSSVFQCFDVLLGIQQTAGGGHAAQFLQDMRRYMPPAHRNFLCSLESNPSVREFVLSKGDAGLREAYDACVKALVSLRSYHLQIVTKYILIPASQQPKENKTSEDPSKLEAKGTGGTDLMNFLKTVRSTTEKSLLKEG

As to `O=C1c2cc([N+](=O)[O-])ccc2-n2c1nc1ccccc1c2=O`, the IC50 came out at 0.018 nM.
